Holding throughout (assay): NCI tumour cell line growth inhibition, 48 h
The test system of test [1] is SNB-19 CNS.
Test [2] relates to OVCAR-5 ovarian.
Test [3] has as its system SK-OV-3 ovarian.
Test [4] deals with A549 NSCLC.
The test system of test [5] is NCI-H226 lung.
In test [6] the test system is LOX IMVI melanoma.
Test [7] has as its system IGROV1 ovarian.
Test [8] has as its system MDA-MB-231 breast.
Test [9] relates to MDA-MB-435.
In test [10] the test system is UACC-62 melanoma.
Test [11] relates to HCC-2998 colon.
For test [12], the system named is K-562 leukemia.
The test system of test [13] is A498 renal.

The values that follow come from PubChem BioAssay (NCI).

Values joined by “and” are separate entries in the source; they are usually repeats but may differ in a detail not shown here. Equal values may be shown once.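 Five concentrations, 48 hours, 96-well plates. GI50 = concentration required for 50% inhibition of growth. TGI marks complete inhibition of growth.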 Bounds are passed on as bounds.

`CCCCCCCCCCCCCCCCCCNC(=S)/N=C/c1c(O)cc(C)oc1=O`: the TGI in test [1] is 52.1 µM; in test [2] it was 37.3 µM; in test [3], 87.4 µM; in [4], 69.5 µM; in test [5], more than 100 µM; in [6], more than 100 µM. Further, the TGI in test [7] is 55.8 µM; in [8], more than 100 µM; in test [9], 55.6 µM; in test [10], more than 100 µM; in test [11], 39 µM.

Consider `Cc1cc(C)c(N)c(C)c1N`, for which the TGI in test [12], in [1], in test [2], in test [3], in [4] and in test [6] was more than 100 µM each time. Further, the TGI in test [7], in test [13], in test [10] and in test [11] was more than 100 µM throughout.

On to `CCOC(=O)CC(=Nc1cc(C)on1)N(CC)CC`, for which the TGI in test [12], in test [1], in test [2], in [3], in test [4] and in [5] was more than 100 µM in each case. Also, the TGI in [7], in test [13] and in test [10] was more than 100 µM in each case.

With `[N-]=[N+]=NC(c1cn(C2CC(O)C(CO)O2)c(=O)[nH]c1=O)C(I)I` (configuration not stated), the TGI in [12], in [1], in test [2], in [3], in test [4] and in [5] was more than 100 µM each time. In addition, the TGI in test [6], in test [7], in test [13], in test [10] and in [11] was more than 100 µM in each case.

For `C[n+]1c(-c2ccc(/C=N/Nc3n[nH]c(=S)n3N/N=C/c3ccc(-c4cn5ccccc5[n+]4C)cc3)cc2)cn2ccccc21`, the TGI in test [12], in [1], in test [2], in [3], in test [4] and in test [7] was more than 100 µM in each case. Further, the TGI in test [8], in test [9] and in test [11] was more than 100 µM each time.

On to `O=C(/C=C\c1ccc(OCCCCCC[P+](c2ccccc2)(c2ccccc2)c2ccccc2)cc1)c1ccc2c(c1)OCCO2`, for which the GI50 is 0.494 µM in test [12]; 0.462 µM in [1]; 1.58 µM in [3]; 0.985 µM in [9]; 0.376 µM in test [13]; 1.01 µM in [11]. The TGI is more than 100 µM in test [12]; 1.74 µM in test [1]; 3.88 µM in test [3]; 2.21 µM in test [9]; 1.95 µM in test [13]; 2.2 µM in test [11].

On to `CN(c1ccccc1Cl)S(=O)(=O)c1ccccc1`, for which the TGI in test [12], in [1], in [2], in test [3], in test [4] and in [5] was more than 100 µM throughout. Further, the TGI in test [6], in test [7], in test [8], in test [9] and in test [10] was more than 100 µM in each case.

As to `CNc1nc(=O)c(C#N)c(-c2ccc(C)cc2)s1`, the TGI in test [12], in [1], in [2], in test [3], in test [4] and in test [5] was more than 100 µM in each case. Moreover, the TGI in [6], in test [7], in test [8], in [9], in test [10] and in test [11] was more than 100 µM throughout.

`C/C(=N\Nc1ncnc2ccccc12)c1ccccn1`: the TGI in test [12] is more than 4.64 µM; in [1], 59.1 µM; in test [2], 64.6 µM; in [3], 4.03 µM; in test [4], 32.6 µM; in test [5], 1.13 µM. Further, the TGI in test [6] came to 5.45 µM; in test [7], 2.84 µM; in [9], 33 µM; in test [13], 16.4 µM; in [10], 3.22 µM; in [11] it was 36 µM.

As to `C=CC[C@@]1(C#N)C[C@H](C[C@]2(C#N)C[C@H](CCl)OC(C)(C)O2)OC(C)(C)O1`, the TGI in test [12], in test [1], in test [2], in test [3], in [4] and in test [5] was more than 100 µM in each case. Besides, the TGI in [6], in test [7], in test [13], in [10] and in test [11] was more than 100 µM throughout.

As to `Cc1ccc(C(=O)NC(C)C)cc1N=NN(C)C`, the TGI in test [1], in test [4], in test [6], in test [7], in [10] and in test [11] was more than 100 µM each time.

For the compound `Cc1cc(O)c(/C=N/C(=O)NN)c(=O)o1`, the TGI in [1], in test [2], in test [3], in [4], in [6] and in test [7] was more than 100 µM in each case. In addition, the TGI in test [8], in test [9], in [10] and in test [11] was more than 100 µM throughout.

As to `O=C(Cc1ccccc1)NN1C(=O)C(Cl)C1c1ccccc1` (configuration not stated), the TGI in [12], in [1], in [2], in [3], in test [4] and in test [5] was more than 100 µM throughout. The TGI in [7], in test [10] and in test [11] was more than 100 µM each time.

With `CC(C)(CO)NC(=O)c1cccc(C(=O)NC(C)(C)CO)c1Br`, the TGI in [12], in [1], in [2], in test [4], in test [5] and in test [6] was more than 100 µM in each case. For the same compound, the TGI in test [7], in [8], in test [9], in test [10] and in test [11] was more than 100 µM each time.

With `COc1cc(C2c3cc4c(cc3OC(N3CCOCC3)C2C)OCO4)cc(OC)c1OC` (configuration not stated), the TGI in test [12] is more than 54.3 µM; in test [1], 18.7 µM; in [2] it was more than 65.7 µM; in test [3] it was 23.4 µM; in test [4], more than 69.2 µM; in test [5] it was 11.2 µM. Besides, the TGI was more than 53.3 µM in test [6]; 47.7 µM in test [7]; 37.3 µM in [8]; 0.549 µM in [9]; 56.5 µM in test [10]; 4.35 µM in test [11].

As to `CC1(C)CC(=O)C2=C(C1)N(c1ccccc1)C1(O)C=CC(=O)C3=C(O)c4ccccc4C(=O)C321` (configuration not stated), the TGI in test [12] was more than 100 µM; in test [1], 54.5 µM; in [2], more than 100 µM; in test [3] it was more than 100 µM; in test [4], more than 100 µM; in [5], 42.4 µM. Also, the TGI in test [6] was 56.3 µM; in test [7], 75.5 µM; in test [8] it was more than 100 µM; in [9] it was 54 µM; in [10] it was 63.5 µM; in test [11], 78.2 µM.

Turning to `CC[S+](C)c1ccc(-c2c3nc(c(-c4ccc([S+](C)CC)cc4)c4ccc([nH]4)c(-c4ccc([S+](C)CC)cc4)c4nc(c(-c5ccc([S+](C)CC)cc5)c5ccc2[nH]5)C=C4)C=C3)cc1` (configuration not stated), the TGI in test [12] is more than 100 µM; in test [1], more than 100 µM; in [2] it was 65.8 µM; in test [3], 95.5 µM; in test [4], more than 100 µM; in test [6], 23.3 µM. Also, the TGI in test [13] is more than 100 µM; in test [10], 54.9 µM.

On to `CCc1c(-c2coc(CC/C(C)=C/c3ccccc3)n2)oc(OC)c(C)c1=O`, for which the TGI in test [12] is more than 100 µM; in test [1] it was more than 86.3 µM; in [2] it was more than 100 µM; in test [3] it was more than 100 µM; in [4] it was more than 100 µM; in test [5], more than 100 µM. The TGI in test [6] was more than 50.9 µM; in [7], more than 100 µM; in [13], more than 100 µM; in test [10] it was more than 53 µM; in test [11], more than 100 µM.

As to `O=C(O)C1Cc2ccccc2OC1=O` (configuration not stated), the TGI in [12], in test [1], in [2], in test [3], in [4] and in [5] was more than 100 µM in each case. Also, the TGI in test [7], in [8], in [9], in test [10] and in test [11] was more than 100 µM in each case.

Consider `CCOC(=O)/C(=C\NC#N)c1nc2ccccc2[nH]1`, for which the TGI in test [1], in test [2], in test [3], in test [4], in test [6] and in test [7] was more than 100 µM each time. The TGI in [9], in test [13], in test [10] and in test [11] was more than 100 µM in each case.

Take `CC(=O)C1C(=O)C(=O)N(c2ccc([N+](=O)[O-])cc2Cl)C1=O` (configuration not stated): the TGI in test [1], in test [2], in test [3], in [4], in [5] and in test [6] was more than 100 µM each time. Moreover, the TGI in test [7], in test [8], in [9], in [10] and in test [11] was more than 100 µM each time.

For `COc1ccc(-c2c(C(C)=O)c(-c3ccccc3)n(C3OC(COC(C)=O)C(OC(C)=O)C(OC(C)=O)C3OC(C)=O)c(=S)c2C#N)cc1O` (configuration not stated), the TGI in test [12] was more than 100 µM; in test [1] it was more than 100 µM; in test [2] it was more than 100 µM; in test [4], more than 100 µM; in [6] it was more than 100 µM; in [7], 35.6 µM and > 100 µM. For the same compound, the TGI in [9] was more than 100 µM; in test [13], more than 100 µM; in [10], 53.6 µM and > 100 µM; in test [11], 42 µM and 80.5 µM. Further, the GI50 in test [7] is 12.4 µM and 38.2 µM.

Take `Cc1noc(C)c1N=Nc1ccc2nonc2c1N`: the TGI in test [1], in [2], in test [3], in test [4], in test [6] and in test [7] was more than 100 µM throughout. Moreover, the TGI in test [8], in [9], in test [10] and in test [11] was more than 100 µM throughout.

In the case of `CC(=O)O[C@@H]1CC2[C@@H](CCC3Cc4nc5c(nc4C[C@@]32C)CC2CC[C@@H]3C(CC[C@@]4(C)C3CC[C@@H]4C(C)CCCC(C)C)[C@@]2(C)C5)C2C[C@@H]3OC4(CCC(C)CO4)C(C)[C@@H]3[C@]21C` (some centres not stated), the TGI was more than 100 µM in test [12]; more than 100 µM in test [1]; more than 100 µM in test [2]; more than 100 µM in test [3]; more than 100 µM in test [4]; 87.1 µM in test [5]. In addition, the TGI in test [7] is more than 100 µM; in test [8], more than 100 µM; in [9], more than 100 µM; in [10], 50.1 µM; in [11] it was more than 100 µM.

`CNC(=O)C(NC(=O)[C@H](CC(C)C)NC(=O)[C@@H](S)CCN1C(=O)N(C)C(C)(C)C1=O)C(C)(C)C` (some centres not stated): the TGI in test [12], in test [1], in test [2], in test [3], in [4] and in test [5] was more than 100 µM in each case. Moreover, the TGI in [7], in test [9], in test [13], in test [10] and in [11] was more than 100 µM throughout.
